The source of these data is a melting point compilation (Tetko et al.; mined from patent text by program, amines drawn as free bases though some values may be those of a salt).

The term melting point denotes the temperature of the solid-liquid transition. `CNC(=O)c1ccccc1Nc1nc(Nc2ccc3c(c2)CCN(CCOC)CC3)ncc1Cl` came in with a melting point of 178 to 183 °C.
`CCCC(=O)NCC1Cc2cccc3cccc1c23` (stereo not given): the melting point was found to be 111 °C.
Take `Cc1ccn(Cc2ccc(Cl)c(Cl)c2)c(=O)c1C(=O)O`: the melting point was in the range of 219 to 221 °C.
In turn, `CC(C)C1(C)NC(c2ccccc2C(=O)N(C)C)=NC1=O` (stereo not given) yielded a melting point of 144 to 146 °C.
Molecule `CC(C)n1nc(-c2c(-c3ccccc3)nn3ccc(OCC(=O)N(C)C)cc23)ccc1=O` registered a melting point of 189 to 190 °C.
For the molecule `COc1ccc([N+](=O)[O-])cc1C=O`, the melting point was in the range of 89 to 90 °C.
`CCN(CCc1ccc(Nc2ncc3c(n2)-c2ccccc2C(c2cccc(Br)c2)C3)cc1)C(C)C` (stereo not given) gave a melting point of 67 to 69 °C.
Regarding `Cc1oc(-c2ccccc2)nc1CCOc1ccc([N+](=O)[O-])cn1`, the melting point lay within 110 to 112 °C.
Under `O=[N+]([O-])c1ccc(Cc2cccnc2)cc1` stands 87 to 88 °C; under `CSc1cc2n(c(=O)n1)C(C)N=C2` (stereo not given), 221 to 222 °C.
In the case of `CCCc1c2[nH]c(C(=O)OCC)cc(=O)c2cc2c(=O)cc(C(=O)OCC)oc12`, the melting point is 211 to 212 °C.
As for `CC(C)NC(=O)Cn1c(-c2ccc(Cl)cc2)nc2cccnc21`, the melting point was in the range of 248 to 249 °C.
Under `CC(=O)c1ccc(Cn2c3c(c4cc(F)cc(F)c42)CCCC3CC(=O)O)cc1` (stereo not given) stands 163 to 164 °C; under `CCCCOCCOc1ccc(-c2ccc3c(c2)C=C(C(=O)Nc2ccc(S(=O)Cc4nccn4CCCC(=O)NC)cc2)CCN3CC(C)C)cc1` (stereo not given), 159 to 161 °C; under `O=C(NCC(=O)N1c2ccccc2N(Cc2ccccc2)C(=O)[C@H]2CCC[C@H]21)c1ccccc1` (relative stereo), 201 to 203 °C.
In turn, `CC(C)(C)OC(=O)N1CC(CCl)c2c1cc(O)c1ncccc21` (stereo not given) registered a melting point of 148 to 149 °C.
`CCSC1=C(C#N)C(c2ccccc2)(c2ccccc2)C(=O)N1CCCNC(=O)OC(C)(C)C` yielded a melting point of 88 °C.
The molecule `COc1ccc(C(=O)N(C(=O)c2ccc(OC)cc2)c2nc3ccc(N(C)C)cc3c(NCc3cccs3)c2C#N)cc1` had a melting point of 171 °C.
Molecule `CS(=O)(=O)NCCCC1COCc2nc3c(N)nc4c(c3n21)CCCC4` (stereo not given) returned a melting point of 197 to 200 °C.
`Cn1c(C(CCN2CCC(O)(c3ccccc3)CC2)c2ccc(Cl)c(Cl)c2)cc2ccccc2c1=O` (stereo not given) registered a melting point of 100 to 102 °C.
Molecule `CCOC(=O)CNC(=O)C[C@H]1O[C@@H](c2ccccc2)c2cc(Cl)ccc2N(C(C)C)C1=O` (relative stereo) returned a melting point of 188 to 190 °C.
As for `O=C(c1ccccc1)N1CCc2[nH]c3cc(-c4ccccc4)ccc3c2CC1`, the melting point lay within 213 to 232 °C.
The molecule `COc1cc(C(=O)NS(=O)(=O)c2ccccc2C)ccc1Cc1cn(C)c2ccc(C(=O)O)cc12` gave a melting point of 255 to 257 °C.
As for `COc1ccc(N2C(=O)N(c3ccc(OC)cc3)C(C)c3cnc(Nc4ccccc4)nc32)cc1` (stereo not given), the melting point was in the range of 228 to 234 °C.
Regarding `COc1cc(Cn2ccc3ncnc-3c2)ccc1C(=O)N(C1CCCC1)C1CC(C)CC(C)C1` (stereo not given), the melting point fell in the range of 218 to 220 °C.
The molecule `COc1ccc(C(=O)Nc2ccccc2)cc1NCc1cccc(C)c1` returned a melting point of 184 to 185 °C.
Under `CCOC(=O)N1CCC(=C2c3ccccc3C=Cc3ccccc32)CC1` stands 123 to 124 °C; under `CC1(C)Oc2ccc([N+](=O)[O-])cc2C(n2ccccc2=O)=C1CNC=O`, 170 °C; under `CN(Cc1cc(C(=O)O)ccc1N)C1CCCCC1`, 200 to 205 °C.
`N#Cc1ccc(CC2CC3CCC(C2)N3c2ccccc2)c2ccccc12` (stereo not given) had a melting point of 103 to 104 °C.
Molecule `CC(C)Cn1nc(-c2ccccc2)c(-c2ccccc2)c1CCl` showed a melting point of 92 °C.
To `CCn1c(COC(=O)NC(=O)c2ccc(Cl)cc2)nc(C(C)C)c1Sc1cc(Cl)cc(Cl)c1` belongs 82 to 83 °C; to `CC1(C)CC(=O)c2c(SCc3ccccc3)cn(-c3ccccn3)c2C1`, 190 to 192 °C.
`COc1ccc(-c2[nH]nc3c2CCc2ccccc2-3)cc1` had a melting point of 161 to 163 °C.
In turn, `CCCc1nn(C)c2c(=O)n(CCNc3ccc(OC(C)(C)C(=O)O)cc3)c(C)nc12` gave a melting point of 88 to 90 °C.
Take `COc1ccc(NS(=O)(=O)c2ccc([N+](=O)[O-])cc2OC)cc1`: the melting point lay within 180 to 182 °C.
As to `COc1c(OCc2ccc(-c3ccccc3S(=O)(=O)Nc3onc(C)c3C)c(COCCF)c2)cc(C)nc1C`, the melting point fell in the range of 90 to 95 °C.
In turn, `Cn1ccc(C(=O)O)c(OCc2ccccc2)c1=O` gave a melting point of 129 to 130 °C.
Regarding `O=C(O)CCCCCOC(=O)n1c(-c2cscn2)nc2ccccc21`, the melting point fell in the range of 79 to 81 °C.
To `CCC(=O)NCC[C@@H]1CCc2cc(Br)c(O)c(CCO)c21` belongs 85 to 87 °C; to `CC(CN(C)S(C)(=O)=O)n1nnc2cc3c(=O)n(C4CC4)nnc3cc2c1=O` (stereo not given), 170 to 172 °C; to `Cn1c(C(=O)NCCCNC2CCCCC2)ccc1-c1nc(-c2cccc(C(F)(F)F)c2)cs1`, 120 to 123 °C.
For `CC(C)C1(C)N=C(c2ccc(O)cn2)NC1=O` (stereo not given), the melting point lay in the range of 252 to 254 °C.
`CCOc1nc2cccc(C(=O)O)c2n1Cc1ccc(-c2ccccc2-c2nnnn2C(c2ccccc2)(c2ccccc2)c2ccccc2)cc1` gave a melting point of 168 to 170 °C.
To `O=C(O)c1ccc(I)nc1` belongs 177 to 179 °C; to `CN1CCC23c4cccc(O)c4OC2C2CCC3(CC2)C1` (stereo not given), 174 to 176 °C.
To `COc1ccc(C(=C/C=C/C(=O)NCCCCCc2ccccn2)c2ccc(OC)cc2)cc1` belongs 99 to 100 °C; to `O=C(O)COc1ccc(-c2c3ccccc3cc3sc4cc(OCC(=O)O)ccc4c23)cc1`, 220 to 222 °C.
Take `CCc1cc2c(s1)S(=O)(=O)Cc1cc(=O)n(-c3ccc(Cl)cc3)nc1-2`: the melting point lay in the range of 189 to 191 °C.
In the case of `CC(Sc1nc(N)cc(Cl)n1)c1nccc2ccccc12` (stereo not given), the melting point lay in the range of 179 to 180 °C.
Under `COc1cc2c(cc1OC)-c1ccc(OC)c(OC)c1C2=O` stands 208 to 209 °C.
`CC(C)C1COCc2nc3c(N)nc4cc(OCC(=O)N5CCOCC5)ccc4c3n21` (stereo not given) displayed a melting point of 137 to 139 °C.
For the molecule `CC12CCC3c4ccc(O)cc4CC(Sc4ccc(C=CC(=O)O)cc4)C3C1CCC2O` (stereo not given), the melting point lay in the range of 215 to 220 °C.
The molecule `Nc1cccc(NC(=O)c2ccc(CNC(=O)OCc3cccnc3)cc2)c1` had a melting point of 156 °C.
With `CC(=O)N[C@@H](CO)C(=O)NCc1ccccc1`, the melting point lay in the range of 147 to 148 °C.
To `COC1=CC(=O)C(Cc2ncn(C(c3ccccc3)(c3ccccc3)c3ccccc3)c2C)CC1` (stereo not given) belongs 145 to 148 °C; to `CC(C)(C)n1ncc(NCCN2CCNC(c3cccc(C(F)(F)F)c3)C2)c(Cl)c1=O` (stereo not given), 124 to 127 °C; to `CC1(C(=O)O)CCCc2c(-c3ccc(Cl)cc3)noc2C1` (stereo not given), 232 to 235 °C.
`O=C1N(Cc2ccc(C(F)(F)F)o2)c2ccccc2C12COc1cc3c(cc12)OCO3` (stereo not given) showed a melting point of 103 to 105 °C.
The molecule `CC(=O)Nn1c(C)nc2cc(C(F)(F)F)ccc21` displayed a melting point of 214 to 216 °C.
As for `COc1ccc2c3c(c(=O)oc2c1)CN(Cc1ccccc1)CC3`, the melting point lay within 118 to 120 °C.
To `CC(=O)O[C@@H]1OCC[C@@H]1NC(=O)[C@H](CC(C)C)NC(=O)[C@H](CC(C)C)NC(=O)OCc1ccccc1` belongs 175 to 176 °C; to `COC(=O)[C@@H](NC(=O)c1ccc(F)c(Br)c1)[C@@H](C)O`, 73 to 74 °C.
Molecule `CCOC(=O)COc1ccc(Oc2nc(Cl)cc3ccccc23)cc1` returned a melting point of 97 °C.
Regarding `COC(=O)c1cc2ccc(OCCN(C)C(=O)OC(C)(C)C)cc2oc1=O`, the melting point lay in the range of 128 to 129 °C.
Under `c1cncc(-c2ccc3nncn3n2)c1` stands 199 to 200 °C.
To `O=Cc1ccc(-c2ccccc2-c2nnn[nH]2)cc1` belongs 189 to 190 °C; to `Oc1ccc(C(O)CN2CCC(O)(c3cccc(F)c3)CC2)cc1` (stereo not given), 154 °C.
To `CCCn1c(COCC)nc2c(N)nc3ccc(OCc4ccccc4)cc3c21` belongs 152 to 154 °C; to `CCN1CC(CCN(C)C)Oc2ncccc2C1=S` (stereo not given), 73 °C; to `O=C(O)c1c(Cl)cc(Cl)c(Cl)c1C(=O)O`, 150 to 153 °C.
On to `CS(=O)(=O)c1ccc(CC(=O)c2ccc(F)cc2)cc1`, for which the melting point fell in the range of 182 to 183 °C.
To `COc1ccc(/C=C/C(=O)OCC(=O)COC(=O)/C=C/c2ccc(OC)cc2)cc1` belongs 146 to 148 °C.
To `O=C(Nc1ccccc1)c1ccc(OC(F)(F)F)c(Nc2cccc(C(F)(F)F)c2)c1` belongs 129 to 130 °C; to `CCCc1nc2c(ccc3[nH]c4cnc(C(=O)OC(C)C)c(C)c4c32)o1`, 223 to 224 °C; to `N#Cc1cccc(C[C@H](N)C(=O)O)c1`, 248 to 250 °C.
As for `CCOC(=O)C(N)c1c[nH]c2c(CC)cccc12` (stereo not given), the melting point was in the range of 120 to 122 °C.
Molecule `CC(C)(C)c1cc(-c2c[nH]c(CNC(=O)OCc3ccccc3)n2)cc(C(C)(C)C)c1O` gave a melting point of 212 to 213 °C.
Take `O=C(O)c1nn(-c2ccc(Cl)cc2Cl)c2c1CCc1c(Br)csc1-2`: the melting point lay within 239 to 242 °C.
As to `COC(=O)c1cccc(CC(C)NCC(O)c2ccc(O)c(CO)c2)c1` (stereo not given), the melting point lay in the range of 60 to 70 °C.
For `COc1cc2sc(-c3cccnc3)nc2cc1N=C=S`, the melting point is 164 to 166 °C.
For the molecule `O=C1OC(=O)c2c(Cl)cc(Cl)cc21`, the melting point was in the range of 90 to 94 °C.
`CN(C)C=CC(=O)c1cccc(N(C)C(=O)C2CCC2)c1` came in with a melting point of 117 to 119 °C.
Turning to `CCOc1ccccc1C=C1CCc2c1oc1ccc(C(=O)OC)cc1c2=O`, the melting point lay within 189 to 192 °C.
In the case of `CC(Cn1ncnn1)n1nnc2cc3c(=O)n(CC#N)nnc3cc2c1=O` (stereo not given), the melting point was in the range of 209 to 212 °C.
